Consider 22 compounds from patent US9670227B2, “Thienopyrimidine derivatives, a process for their preparation and pharmaceutical compositions containing them” (LES LABORATOIRES SERVIER, priority 2013, dated 2017).

Like-named read-outs stand apart in the source and are kept apart here.

Experiment [1] concerns H929 multiple myeloma tumour line. The experiment can be described thus: In vitro cytotoxicity, Microculture Tetrazolium Assay. The format is cell-based. The following applies: H929 cells, 48 hours exposure, MTT, read-out: IC50 (μM) MTT H929. As for the experimental part:
The cytotoxicity studies were carried out on the H929 multiple myeloma tumour line.
The cells are distributed onto microplates and exposed to the test compounds for 48 hours.

A further experiment deals with Mcl-1 protein (UniProtKB primary accession number: Q07820) (Homo sapiens, UniProt Q07820). The experiment can be described thus: Inhibition of Mcl-1 by fluorescence polarisation, Method 1. The format is binding. Particulars: for IC50: fluorescence polarisation, Method 1, or Method 2, read-out: IC50 (M) Mcl-1 FP. The procedure, abridged:
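Fluorescence polarisation competition with an 11-point compound dilution series (final DMSO 5%). Mcl-1 protein at 5 nM and fluorescein-labelled ligand at 1 nM (final) in 10 mM HEPES, 150 mM NaCl, 0.05% Tween 20, pH 7.4.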
A general note: Fluorescence polarisation rises when a labelled molecule tumbles more slowly, as on binding a larger partner.

Mcl-1 protein, sequence (Q07820 whole entry): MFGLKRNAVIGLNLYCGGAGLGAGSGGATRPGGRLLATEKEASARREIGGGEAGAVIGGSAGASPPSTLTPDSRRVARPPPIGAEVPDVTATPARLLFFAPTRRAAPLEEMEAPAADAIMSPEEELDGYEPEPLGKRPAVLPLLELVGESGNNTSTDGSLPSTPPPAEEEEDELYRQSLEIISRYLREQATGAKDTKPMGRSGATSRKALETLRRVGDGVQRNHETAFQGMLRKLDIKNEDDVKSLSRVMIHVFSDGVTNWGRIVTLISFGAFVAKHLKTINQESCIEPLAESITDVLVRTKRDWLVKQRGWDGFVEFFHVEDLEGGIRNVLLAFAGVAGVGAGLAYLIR

On to `CCc1sc2ncnc(O[C@H](Cc3ccccc3)C(=O)O)c2c1-c1ccc(OCCN(C)C)c(Cl)c1C` [Example 408, (2R)-2-[((5Ra)-5-{3-chloro-4-[2-(dimethylamino)ethoxy]-2-methylphenyl}-6-ethylthieno[2,3-d]pyrimidin-4-yl)oxy]-3-phenylpropanoic acid], for which the IC50 in experiment [1] stood at 15.9 µM. Besides, the “percentage fluorescence polarisation inhibition, Mcl-1 FP” value at Mcl-1 protein (partial inhibitors, @ 10 uM test compound) was 26.25% @ 10 uM.

With `CCc1sc2ncnc(O[C@H](Cc3ccccc3)C(=O)O)c2c1-c1ccc(OCCN(C)CCO)c(Cl)c1C` [Example 411, (2R)-2-{[(5Sa)-5-(3-chloro-4-{2-[(2-hydroxyethyl)(methyl)amino]ethoxy}-2-methylphenyl)-6-ethylthieno[2,3-d]pyrimidin-4-yl]oxy}-3-phenylpropanoic acid], the IC50 in experiment [1] worked out at 19 µM; on Mcl-1 protein, 3.4e-08 M.

In the case of `CCc1sc2ncnc(OC(Cc3ccccc3)C(=O)O)c2c1-c1ccc(OCCN(CCO)CCO)c(Cl)c1C` [Example 412, (2R)-2-{[(5Sa)-5-(4-{2-[bis(2-hydroxyethyl)amino]ethoxy}-3-chloro-2-methylphenyl)-6-ethylthieno[2,3-d]pyrimidin-4-yl]oxy}-3-phenylpropanoic acid], the IC50 came to 28.7 µM in experiment [1] (Homo sapiens, NCI-H929, 48 h) and 5.1e-08 M on Mcl-1 protein.

Consider `CCc1sc2ncnc(OC(Cc3ccccc3)C(=O)O)c2c1-c1ccc(OCCN2CCC(O)CC2)c(Cl)c1C` [Example 413, (2R)-2-[((5Sa)-5-{3-chloro-4-[2-(4-hydroxypiperidin-1-yl)ethoxy]-2-methylphenyl}-6-ethylthieno[2,3-d]pyrimidin-4-yl)oxy]-3-phenylpropanoic acid], for which the IC50 in experiment [1] (Homo sapiens, NCI-H929, 48 h) came out at 15.8 µM; on Mcl-1 protein, 1.3e-08 M.

For the compound `CCc1sc2ncnc(OC(Cc3ccccc3)C(=O)O)c2c1-c1ccc(OCCn2ccnc2)c(Cl)c1C` [Example 418, (2R)-2-[((5Sa)-5-{3-chloro-4-[2-(1H-imidazol-1-yl)ethoxy]-2-methylphenyl}-6-ethylthieno[2,3-d]pyrimidin-4-yl)oxy]-3-phenylpropanoic acid], the IC50 in experiment [1] (Homo sapiens, NCI-H929, 48 h) was 13.3 µM; on Mcl-1 protein, 5.6e-08 M.

Regarding `CCc1sc2ncnc(OC(Cc3ccccc3)C(=O)O)c2c1-c1ccc(OCCN2CCNC2=O)c(Cl)c1C` [Example 419, (2R)-2-[((5Sa)-5-{3-chloro-2-methyl-4-[2-(2-oxoimidazolidin-1-yl)ethoxy]phenyl}-6-ethylthieno[2,3-d]pyrimidin-4-yl)oxy]-3-phenylpropanoic acid], the IC50 in experiment [1] (Homo sapiens, NCI-H929, 48 h) came out at 21.5 µM; at Mcl-1 protein it was 3.4e-08 M.

With `CCc1sc2ncnc(OC(Cc3ccccc3)C(=O)O)c2c1-c1ccc(OCCN2CCOCC2)c(Cl)c1C` [Example 420, (2R)-2-[((5Sa)-5-{3-chloro-2-methyl-4-[2-(morpholin-4-yl)ethoxy]phenyl}-6-ethylthieno[2,3-d]pyrimidin-4-yl)oxy]-3-phenylpropanoic acid], the IC50 in experiment [1] (Homo sapiens, NCI-H929, 48 h) is 15.6 µM; at Mcl-1 protein, 4e-08 M.

Consider `CCc1sc2ncnc(OC(Cc3ccccc3)C(=O)O)c2c1-c1ccc(OCCNC(C)=O)c(Cl)c1C` [Example 422, (2R)-2-[((5Sa)-5-{4-[2-(acetylamino)ethoxy]-3-chloro-2-methylphenyl}-6-ethylthieno[2,3-d]pyrimidin-4-yl)oxy]-3-phenylpropanoic acid], for which the IC50 was determined as 14.4 µM in experiment [1] (Homo sapiens, NCI-H929, 48 h) and 1.4e-08 M on Mcl-1 protein.

For the compound `CCc1sc2ncnc(OC(Cc3ccccc3)C(=O)O)c2c1-c1cc(CN2CCN(C)CC2)c(OC)c(Cl)c1C` [Example 434, (2R)-2-[((5Sa)-5-{3-chloro-4-methoxy-2-methyl-5-[(4-methylpiperazin-1-yl)methyl]phenyl}-6-ethylthieno[2,3-d]pyrimidin-4-yl)oxy]-3-phenylpropanoic acid], the IC50 stood at 11.3 µM in experiment [1] (Homo sapiens, NCI-H929, 48 h) and 1.7e-07 M at Mcl-1 protein.

For `CCc1sc2ncnc(OC(Cc3ccccc3)C(=O)O)c2c1-c1cc([N+](=O)[O-])c(OCCN2CCN(C)CC2)c(Cl)c1C` [Example 435, (2R)-2-[((5Sa)-5-{3-chloro-2-methyl-4-[2-(4-methylpiperazin-1-yl)ethoxy]-5-nitrophenyl}-6-ethylthieno[2,3-d]pyrimidin-4-yl)oxy]-3-phenylpropanoic acid], the IC50 in experiment [1] (Homo sapiens, NCI-H929, 48 h) came out at 11.1 µM; on Mcl-1 protein it was 3.2e-07 M.

With `CCc1sc2ncnc(OC(Cc3ccccc3)C(=O)O)c2c1-c1cc(Cl)c(OCCN2CCN(C)CC2)c(Cl)c1C` [Example 436, (2R)-2-[((5Sa)-5-{3,5-dichloro-2-methyl-4-[2-(4-methylpiperazin-1-yl)ethoxy]phenyl}-6-ethylthieno[2,3-d]pyrimidin-4-yl)oxy]-3-phenylpropanoic acid], the IC50 in experiment [1] (Homo sapiens, NCI-H929, 48 h) stood at 15.1 µM; on Mcl-1 protein, 2.9e-08 M.

For the compound `CCc1sc2ncnc(OC(Cc3ccccc3)C(=O)O)c2c1-c1cc(N)c(OCCN2CCN(C)CC2)c(Cl)c1C` [Example 437, (2R)-2-[((5Sa)-5-{5-amino-3-chloro-2-methyl-4-[2-(4-methylpiperazin-1-yl)ethoxy]phenyl}-6-ethylthieno[2,3-d]pyrimidin-4-yl)oxy]-3-phenylpropanoic acid], the IC50 amounted to 20.3 µM in experiment [1] (Homo sapiens, NCI-H929, 48 h) and 4.5e-08 M on Mcl-1 protein.

For the compound `CCc1sc2ncnc(OC(Cc3ccccc3)C(=O)O)c2c1-c1cc2nc(CN3CCN(C)CC3)oc2c(Cl)c1C` [Example 445, (2R)-2-[((5Sa)-5-{7-chloro-6-methyl-2-[(4-methylpiperazin-1-yl)methyl]-1,3-benzoxazol-5-yl}-6-ethylthieno[2,3-d]pyrimidin-4-yl)oxy]-3-phenylpropanoic acid], the IC50 in experiment [1] (Homo sapiens, NCI-H929, 48 h) was found to be 21 µM; on Mcl-1 protein, 1.3e-07 M.

For the compound `CCc1sc2ncnc(OC(Cc3ccccc3)C(=O)O)c2c1-c1cc2nc(CN3CCOCC3)oc2c(Cl)c1C` [Example 446, (2R)-2-({(5Sa)-5-[7-chloro-6-methyl-2-(morpholin-4-ylmethyl)-1,3-benzoxazol-5-yl]-6-ethylthieno[2,3-d]pyrimidin-4-yl}oxy)-3-phenylpropanoic acid], the half-maximal inhibitory concentration (IC50) in experiment [1] (Homo sapiens, NCI-H929, 48 h) came out at 25.7 µM; at Mcl-1 protein, 1.1e-07 M.

Regarding `CCc1sc2ncnc(OC(Cc3ccccc3OCc3ccnc(OC)n3)C(=O)O)c2c1-c1ccc(OCCN2CCN(C)CC2)c(Cl)c1C` [Example 455, (2R)-2-[((5Sa)-5-{3-chloro-2-methyl-4-[2-(4-methylpiperazin-1-yl)ethoxy]phenyl}-6-ethylthieno[2,3-d]pyrimidin-4-yl)oxy]-3-{2-[(2-methoxypyrimidin-4-yl)methoxy]phenyl}propanoic acid], the half-maximal inhibitory concentration (IC50) amounted to 0.339 µM in experiment [1] (Homo sapiens, NCI-H929, 48 h) and 6.2e-09 M on Mcl-1 protein.

With `CCc1sc2ncnc(OC(Cc3ccccc3OCc3ccnn3CC)C(=O)O)c2c1-c1ccc(OCCN2CCN(C)CC2)c(Cl)c1C` [Example 456, (2R)-2-[((5Sa)-5-{3-chloro-2-methyl-4-[2-(4-methylpiperazin-1-yl)ethoxy]phenyl}-6-ethylthieno[2,3-d]pyrimidin-4-yl)oxy]-3-{2-[(1-ethyl-1H-pyrazol-5-yl)methoxy]phenyl}propanoic acid], the IC50 in experiment [1] (Homo sapiens, NCI-H929, 48 h) worked out at 0.513 µM; at Mcl-1 protein, 8e-09 M.

`CCc1sc2ncnc(OC(Cc3cccc4c3OCO4)C(=O)O)c2c1-c1ccc(OCCN2CCN(C)CC2)c(Cl)c1C` [Example 460, (2R)-3-(1,3-benzodioxol-4-yl)-2-[((5Sa)-5-{3-chloro-2-methyl-4-[2-(4-methylpiperazin-1-yl)ethoxy]phenyl}-6-ethylthieno[2,3-d]pyrimidin-4-yl)oxy]propanoic acid]: the IC50 in experiment [1] (Homo sapiens, NCI-H929, 48 h) turned out to be 6.82 µM; on Mcl-1 protein, 1.3e-07 M.

For `CCc1sc2ncnc(OC(Cc3cccc4ccoc34)C(=O)O)c2c1-c1ccc(OCCN2CCN(C)CC2)c(Cl)c1C` [Example 461, (2R)-3-(1-benzofuran-7-yl)-2-[((5Sa)-5-{3-chloro-2-methyl-4-[2-(4-methylpiperazin-1-yl)ethoxy]phenyl}-6-ethylthieno[2,3-d]pyrimidin-4-yl)oxy]propanoic acid], the IC50 in experiment [1] (Homo sapiens, NCI-H929, 48 h) came out at 4.86 µM; on Mcl-1 protein, 8.5e-08 M.

Regarding `CCc1sc2ncnc(OC(Cc3ccccc3F)C(=O)O)c2c1-c1ccc(OCCN2CCN(C)CC2)c(Cl)c1C` [Example 463, (2R)-2-[((5Sa)-5-{3-chloro-2-methyl-4-[2-(4-methylpiperazin-1-yl)ethoxy]phenyl}-6-ethylthieno[2,3-d]pyrimidin-4-yl)oxy]-3-(2-fluorophenyl)propanoic acid], the IC50 came to 5.11 µM in experiment [1] (Homo sapiens, NCI-H929, 48 h) and 4.6e-08 M at Mcl-1 protein.

Take `CC#Cc1sc2ncnc(OC(Cc3ccccc3OC)C(=O)O)c2c1-c1ccc(OCCC2CCN(C)CC2)c(Cl)c1C` [Example 465, (2R)-2-{[(5Sa)-5-{3-chloro-2-methyl-4-[2-(1-methylpiperidin-4-yl)ethoxy]phenyl}-6-(prop-1-yn-1-yl)thieno[2,3-d]pyrimidin-4-yl]oxy}-3-(2-methoxyphenyl)propanoic acid]: the IC50 in experiment [1] (Homo sapiens, NCI-H929, 48 h) worked out at 2.06 µM; at Mcl-1 protein, 2.5e-08 M.

On to `CC#Cc1sc2ncnc(OC(Cc3ccccc3OC)C(=O)O)c2c1-c1ccc(OCCN(C(C)C)C(C)C)c(Cl)c1C` [Example 466, (2R)-2-{[(5Sa)-5-(3-chloro-4-{2-[di(propan-2-yl)amino]ethoxy}-2-methylphenyl)-6-(prop-1-yn-1-yl)thieno[2,3-d]pyrimidin-4-yl]oxy}-3-(2-methoxyphenyl)propanoic acid], for which the IC50 in experiment [1] (Homo sapiens, NCI-H929, 48 h) is 3.35 µM; at Mcl-1 protein, 3.9e-08 M.

As to `CC#Cc1sc2ncnc(OC(Cc3ccccc3OC)C(=O)O)c2c1-c1ccc(OCCN(C)C)c(Cl)c1C` [Example 467, (2R)-2-{[(5Sa)-5-{3-chloro-4-[2-(dimethylamino)ethoxy]-2-methylphenyl}-6-(prop-1-yn-1-yl)thieno[2,3-d]pyrimidin-4-yl]oxy}-3-(2-methoxyphenyl)propanoic acid], the IC50 came to 0.502 µM in experiment [1] (Homo sapiens, NCI-H929, 48 h) and 1.1e-08 M at Mcl-1 protein.

What is called IC50 is the concentration at which inhibition is half-maximal.
